The results in this text go back to ChEMBL document CHEMBL1201862, “PubChem BioAssay data set” (2004).

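Cells were grown in 96-well plates and exposed to each compound for 48 hours at five concentrations; endpoints were interpolated linearly between bracketing concentrations, or set to the highest concentration if not reached. GI50: concentration for 50% inhibition of growth.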 Calls of active or inactive are those of the source. Rule as the data show it: active = GI50 up to about 1.1 µM and inactive = higher.

Some test systems named below: HT-29; RXF 393; CAKI-1; HCT-15; K562; NCI-H23; SN12C; 786-0; SR; UO-31; KM12; TK-10; SF-539; MOLT-4; M14; LOX IMVI; A498; HOP-92; CCRF-CEM.
Common to all, as to test: inhibition of tumour cell growth, NCI panel, 48 h

Consider `CCOC(=O)c1ccc(N2C(=O)/C(=C\OC)c3ccccc3C2=O)cc1`, for which the GI50 in the assay with HT-29 is 44.3 µM (inactive); with RXF 393, 11.2 µM (inactive); in the assay on CAKI-1, 33.4 µM (inactive); with HCT-15, 36 µM; in the assay with K562, 34.2 µM (inactive); with NCI-H23, 37.2 µM (inactive). Further, the GI50 with SN12C was 24.5 µM (inactive); with 786-0, 27.2 µM (inactive); with SR it was 30.3 µM (inactive); in the assay with UO-31 it was 15.5 µM (inactive); with KM12, 42.6 µM (inactive); in the assay with TK-10, 15.1 µM (inactive). Further, the GI50 with SF-539 was 32.4 µM (inactive); with MOLT-4, 25.5 µM (inactive).
As for `COc1cc(CC(=O)O)c([N+](=O)[O-])cc1OC`, the GI50 is > 100 µM (inactive) in the assay with HT-29; > 100 µM (inactive) with M14; > 100 µM (inactive) in the assay with RXF 393; > 100 µM (inactive) in the assay on LOX IMVI; > 100 µM (inactive) with CAKI-1; more than 100 µM in the assay with HCT-15. The GI50 with K562, with NCI-H23, in the assay with SN12C, with A498, with 786-0 and with HOP-92 was > 100 µM (inactive) throughout. For the same compound, the GI50 in the assay with CCRF-CEM, in the assay on UO-31, with KM12, in the assay on TK-10, in the assay with SF-539 and in the assay on MOLT-4 was > 100 µM (inactive) each time.
As to `COc1ccc(C(O)/C(=N\NC(N)=S)c2nc3ccc([N+](=O)[O-])cc3nc2O)cc1OC` (stereo not given), the GI50 in the assay on HT-29, in the assay on M14, in the assay with RXF 393, in the assay with LOX IMVI, in the assay on K562 and with NCI-H23 was > 100 µM (inactive) each time. In addition, the GI50 in the assay with A498, in the assay on 786-0, with HOP-92, with CCRF-CEM, in the assay with UO-31 and in the assay on KM12 was > 100 µM (inactive) each time. The GI50 in the assay with TK-10 is > 100 µM (inactive); with MOLT-4, 78.3 µM (inactive).
As to `CCN(CC)CCNC(=O)c1nn(C)c(=S)[nH]c1=S`, the GI50 is > 100 µM (inactive) in the assay on HT-29; > 100 µM (inactive) with M14; > 100 µM (inactive) in the assay on RXF 393; > 100 µM (inactive) with LOX IMVI; > 100 µM (inactive) in the assay with CAKI-1; more than 100 µM in the assay on HCT-15. The GI50 in the assay on K562, in the assay with NCI-H23, in the assay on SN12C, in the assay with 786-0, with HOP-92 and with SR was > 100 µM (inactive) in each case. Besides, the GI50 in the assay on CCRF-CEM, in the assay with UO-31, in the assay with KM12, in the assay with TK-10, with SF-539 and with MOLT-4 was > 100 µM (inactive) in each case.
`O[C@]12c3ccccc3C1CCCCC2N1CCOCC1` (stereo not given in full): the GI50 in the assay on HT-29 was > 100 µM (inactive); with M14, > 100 µM (inactive); in the assay with RXF 393, > 100 µM (inactive); in the assay with LOX IMVI it was > 100 µM (inactive); in the assay with HCT-15, more than 100 µM; in the assay on K562, > 100 µM (inactive). The GI50 with NCI-H23, in the assay on SN12C, with 786-0, in the assay with SR, with CCRF-CEM and with UO-31 was > 100 µM (inactive) each time. Further, the GI50 was > 100 µM (inactive) in the assay with KM12, > 100 µM (inactive) in the assay with TK-10 and > 10 µM (inactive) in the assay on MOLT-4.
Consider `COC(=O)N/N=C(\Cc1ccccc1)CN(C)C`, for which the GI50 in the assay on HT-29, in the assay with M14, in the assay with RXF 393, with LOX IMVI, in the assay on K562 and with NCI-H23 was > 100 µM (inactive) each time. Moreover, the GI50 in the assay with A498, in the assay with 786-0, in the assay with HOP-92, in the assay on CCRF-CEM, in the assay on KM12 and in the assay on TK-10 was > 100 µM (inactive) throughout. In addition, the GI50 in the assay on SF-539 and in the assay on MOLT-4 was > 100 µM (inactive) in each case.
For `COC(=O)CSc1nc2[nH]c(SC)c(C(N)=O)c2c(=O)n1-c1ccccc1`, the GI50 in the assay on HT-29 is > 10 µM (inactive); with M14 it was > 10 µM (inactive); in the assay with RXF 393 it was > 10 µM (inactive); in the assay with LOX IMVI, > 10 µM (inactive); with CAKI-1, > 10 µM (inactive); in the assay with HCT-15 it was more than 10 µM. Moreover, the GI50 in the assay with K562, with NCI-H23, with SN12C, with 786-0, in the assay with HOP-92 and with SR was > 10 µM (inactive) in each case. The GI50 in the assay on CCRF-CEM, in the assay with KM12, in the assay with TK-10 and with MOLT-4 was > 10 µM (inactive) throughout.
`COC(=O)C1CC2(CC3=C1CCCC3)OCCO2` (stereo not given): the GI50 is > 100 µM (inactive) in the assay with HT-29; > 100 µM (inactive) with M14; > 100 µM (inactive) in the assay with RXF 393; > 100 µM (inactive) in the assay with LOX IMVI; > 100 µM (inactive) in the assay with CAKI-1; more than 100 µM in the assay with HCT-15. For the same compound, the GI50 in the assay on K562, in the assay with NCI-H23, in the assay with SN12C, in the assay on A498, with 786-0 and with HOP-92 was > 100 µM (inactive) each time. For the same compound, the GI50 with CCRF-CEM, in the assay with UO-31, in the assay with KM12, with TK-10 and in the assay with SF-539 was > 100 µM (inactive) throughout.
Turning to `CCOC(=O)C1=C(c2ccccc2)N(C(C)=O)Cc2ccccc21`, the GI50 in the assay on HT-29 is 16.3 µM (inactive); in the assay on M14, 18.5 µM (inactive); with RXF 393, 19.4 µM (inactive); in the assay with LOX IMVI it was 16 µM (inactive); with HCT-15 it was 21.4 µM; in the assay on K562 it was 14.5 µM (inactive). The GI50 with NCI-H23 is 12.6 µM (inactive); with SN12C, 21.9 µM (inactive); in the assay with 786-0, 28.1 µM (inactive); in the assay on HOP-92 it was 3.1 µM (inactive); with SR, 9.73 µM (inactive); in the assay on CCRF-CEM, 16.4 µM (inactive). Moreover, the GI50 in the assay on UO-31 is 18.1 µM (inactive); with KM12 it was 15 µM (inactive); in the assay with TK-10 it was 45.3 µM (inactive); in the assay on SF-539, 16.3 µM (inactive); with MOLT-4 it was 12 µM (inactive).
In the case of `CN(C)CC/C(=N\Nc1ccc([N+](=O)[O-])cc1)c1ccccc1`, the GI50 in the assay on HT-29 is 9.23 µM (inactive); in the assay on M14, 13.9 µM (inactive); with RXF 393, 4.5 µM (inactive); in the assay with LOX IMVI, 5.25 µM (inactive); in the assay on HCT-15, 13.6 µM; with K562 it was 3.48 µM (inactive). Moreover, the GI50 is 13.3 µM (inactive) with NCI-H23; 10.9 µM (inactive) with SN12C; 13.2 µM (inactive) in the assay with A498; 12.6 µM (inactive) in the assay on 786-0; 3.5 µM (inactive) with SR; 7.23 µM (inactive) with CCRF-CEM. For the same compound, the GI50 with UO-31 is 2.1 µM (inactive); in the assay with KM12, 9.31 µM (inactive); with TK-10 it was 4.14 µM (inactive); in the assay with SF-539, 7.28 µM (inactive); in the assay with MOLT-4, 7.43 µM (inactive).
With `CCOc1ccccc1NC(=O)C1=C(C)NC(C)=C(C(=O)Nc2ccccc2OCC)C1c1ccc(NC(C)=O)cc1`, the GI50 was 40.6 µM (inactive) in the assay on HT-29; 29.9 µM (inactive) in the assay with M14; 20.8 µM (inactive) in the assay on RXF 393; 38.9 µM (inactive) in the assay with LOX IMVI; 17.2 µM (inactive) in the assay with CAKI-1; 37.1 µM (inactive) with K562. Moreover, the GI50 in the assay on NCI-H23 was 31 µM (inactive); with SN12C, 30.2 µM (inactive); in the assay on A498, 23.8 µM (inactive); with 786-0, 29.6 µM (inactive); in the assay with HOP-92, 9.62 µM (inactive); in the assay with CCRF-CEM, 61.4 µM (inactive). Further, the GI50 with UO-31 was 23.6 µM (inactive); in the assay with KM12 it was 24.8 µM (inactive); in the assay with TK-10, 47.6 µM (inactive); in the assay with SF-539, 41.7 µM (inactive); in the assay with MOLT-4, 32.1 µM (inactive).
Regarding `N#CC(NNC(=O)c1ccccc1O)c1ccccc1` (stereo not given), the GI50 with HT-29 was 26 µM (inactive); with M14, 0.942 µM (active); in the assay on RXF 393, 1.03 µM (active); in the assay on LOX IMVI it was 2.9 µM (inactive); in the assay on CAKI-1, 2.91 µM (inactive); in the assay with HCT-15, 2.73 µM. For the same compound, the GI50 in the assay with K562 was 0.404 µM (active); in the assay on NCI-H23 it was 1.72 µM (inactive); in the assay with SN12C it was 9.08 µM (inactive); with 786-0 it was 2.5 µM (inactive); with HOP-92, 0.695 µM (active); in the assay on SR, 0.689 µM (active). Moreover, the GI50 is 0.855 µM (active) with CCRF-CEM; 0.562 µM (active) with UO-31; 1.61 µM (inactive) in the assay with KM12; 4.3 µM (inactive) with TK-10; 3.33 µM (inactive) with SF-539; 2.15 µM (inactive) in the assay on MOLT-4.
